In the supplement of paper PMC10307832:

Experiments:
Assay in all cases: relative viability (nuclei count vs DMSO), 5 days (fraction); higher = more cells survive
Motesanib + Alpelisib = compound: CC1(C)CNc2cc(NC(=O)c3cccnc3NCc3ccncc3)ccc21 [Motesanib] + Cc1nc(NC(=O)N2CCC[C@H]2C(N)=O)sc1-c1ccnc(C(C)(C)C(F)(F)F)c1 [Alpelisib] (partner 2 µM)
Method in brief: (§1)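 After 5 days of treatment, lung cancer cells in 1536-well plates were fixed and stained in a single step (final 0.05% Triton X-100, 1% formaldehyde, 1 ug/ml Hoechst) and their nuclei counted on 4× images. Treatment had been applied by pin tool the day after seeding as one drug alone or as a fixed anchor-drug dose with five library-drug doses (not always all listed) in √10 steps. Relative viability is the nuclei count of treated wells divided by that of vehicle wells, and values are medians of duplicate plates.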

[1] = compound: C[C@@]1(C(=O)Nc2ccc(F)nc2)CCCN1c1nc(Nc2cc(C3CC3)n[nH]2)c2cccn2n1 + Nc1nc2[nH]cc(CCc3ccc(C(=O)N[C@@H](CCC(=O)O)C(=O)O)cc3)c2c(=O)[nH]1 [Pemetrexed] (partner 0.2 µM)
Method in brief: as §1

Motesanib = compound: CC1(C)CNc2cc(NC(=O)c3cccnc3NCc3ccncc3)ccc21 [Motesanib]
Method in brief: (§2)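 Lung cancer cell lines in 1536-well plates were kept overnight at 37 °C, then pinned with five library-drug doses (not always all listed) spaced by √10 on vehicle-anchored plates. After 5 days without medium change, cells were fixed, permeabilised and Hoechst-stained in one step, imaged at 4×, and nuclei were counted with MetaXpress. Viability is treated-well nuclei divided by vehicle-well nuclei, taken as the median over plates. Plates passed only with control CV below 25% and at least one doubling.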

[2] = compound: C[C@@]1(C(=O)Nc2ccc(F)nc2)CCCN1c1nc(Nc2cc(C3CC3)n[nH]2)c2cccn2n1
Method in brief: as §2

Cell Line | relative viability (Motesanib + Alpelisib; first compound 0.01 µM) | relative viability (Motesanib + Alpelisib; first compound 0.03162 µM) | relative viability (Motesanib + Alpelisib; first compound 0.1 µM) | relative viability (Motesanib + Alpelisib; first compound 0.3162 µM) | relative viability (Motesanib + Alpelisib; first compound 1 µM) | relative viability ([1]; first compound 0.04 µM) | relative viability ([1]; first compound 0.1265 µM) | relative viability ([1]; first compound 0.4 µM) | relative viability ([1]; first compound 1.265 µM) | relative viability (Motesanib; 0.01 µM) | relative viability (Motesanib; 0.03162 µM) | relative viability (Motesanib; 0.1 µM) | relative viability (Motesanib; 0.3162 µM) | relative viability (Motesanib; 1 µM) | relative viability ([2]; 0.04 µM) | relative viability ([2]; 0.1265 µM) | relative viability ([2]; 0.4 µM) | relative viability ([2]; 1.265 µM)
NCI-H2023 | 0.628 | 0.669 | 0.68 | 0.619 | 0.648 | 0.252 | 0.137 | 0.152 | 0.0911 | 1.02 | 0.906 | 0.955 | 1.01 | 0.979 | 0.881 | 0.613 | 0.547 | 0.394
NCI-H2085 | 0.939 | 1.01 | 1.02 | 0.943 | 1.05 | 0.959 | 0.844 | 0.887 | 0.877 | 1.02 | 0.993 | 0.981 | 1.06 | 1.01 | 1.07 | 0.952 | 0.942 | 0.955
NCI-H2087 | 1.01 | 1.08 | 1.07 | 1.16 | 1.03 | 0.669 | 0.696 | 0.639 | 0.668 | 1.14 | 0.887 | 1.06 | 1.25 | 1.37 | 0.954 | 0.815 | 0.868 | 0.819
NCI-H2126 | 0.77 | 0.723 | 0.724 | 0.768 | 0.699 | 0.622 | 0.463 | 0.379 | 0.465 | 1.03 | 1.04 | 1.01 | 1.04 | 1.07 | 0.882 | 0.614 | 0.553 | 0.599
NCI-H2170 | 0.803 | 0.789 | 0.824 | 0.785 | 0.794 | 0.278 | 0.236 | 0.267 | 0.251 | 0.928 | 0.948 | 0.939 | 1.01 | 1.02 | 0.945 | 0.994 | 0.958 | 0.976
NCI-H2228 | 0.767 | 0.713 | 0.722 | 0.777 | 0.806 | 0.388 | 0.355 | 0.317 | 0.286 | 1.1 | 1.03 | 0.971 | 1.11 | 1.06 | 0.857 | 0.781 | 0.743 | 0.652
NCI-H2347 | 1.02 | 1 | 1.14 | 1.09 | 1.18 | 0.437 | 0.415 | 0.436 | 0.416 | 1.01 | 1.04 | 1.15 | 0.983 | 1.04 | 1.03 | 0.922 | 0.908 | 0.967
NCI-H2405 | – | 0.738 | 0.745 | 0.86 | 0.942 | 0.8 | 0.905 | 0.819 | 0.614 | 0.676 | 0.853 | 0.975 | 1.06 | 1.01 | 0.917 | 0.816 | 0.739 | 0.671
NCI-H3122 | 0.789 | 0.79 | 0.915 | 0.921 | 0.946 | 0.202 | 0.175 | 0.178 | 0.18 | 0.98 | 1.02 | 1.04 | 1.05 | 1.05 | 0.979 | 0.986 | 0.99 | 0.962
PC-3 [JPC-3] | 1.09 | 1.03 | 1.07 | 1.09 | 1.03 | 1.19 | 1.03 | 1.04 | 0.839 | 1.05 | 1.03 | 1.05 | 1.03 | 1.05 | 1.04 | 0.937 | 1.02 | 1.02
PC-14 | 0.958 | 1.03 | 0.998 | 0.931 | 0.958 | 0.154 | 0.155 | 0.134 | 0.121 | 0.977 | 0.995 | 0.974 | 1.07 | 1.05 | 1.04 | 0.769 | 0.875 | 0.946
RERF-LC-KJ | 0.814 | 0.805 | 0.854 | 0.642 | 0.86 | 0.467 | 0.421 | 0.438 | 0.436 | 0.899 | 0.981 | 1 | 0.952 | 1.01 | 0.937 | 0.797 | 0.828 | 0.838
SK-LU-1 | 1.11 | 1.07 | 1.17 | 0.93 | 1.05 | 1.07 | 0.833 | 0.778 | 0.85 | 0.979 | 1.05 | 1.12 | 1.16 | 1.14 | 0.979 | 0.938 | 0.854 | 0.918
SK-MES-1 | 1.04 | 0.948 | 0.961 | 0.927 | 0.995 | 0.948 | 0.93 | 0.838 | 0.796 | 1.01 | 1.02 | 1.06 | 1.01 | 1.02 | 1.03 | 0.955 | 0.796 | 0.921
SW 1573 | 0.825 | 0.759 | 0.75 | 0.67 | 0.821 | 0.847 | 0.749 | 0.803 | 0.244 | 0.998 | 0.894 | 0.977 | 1.05 | 1.15 | 0.824 | 0.762 | 0.697 | 0.672
UMC-11 | 0.923 | 0.973 | 0.981 | 1.03 | 1.03 | 0.773 | 0.827 | 0.705 | 0.722 | 0.951 | 1.07 | 0.872 | 1 | 1.13 | 0.981 | 1.03 | 0.907 | 0.797
